What was measured:
[1] = Description: A common technique used in dissolving metal complexes in supercritical carbon dioxide is to add a co-solvent (Cross et al.). The requirements of a co-solvent have been defined (Cross et al.). Methanol and other alcohols are commonly used. […] In these measurements, the complex was dissolved in 0.25-1 mL of methanol or 1-butanol and then shaken with 5-10 mL hexane; solubility was indicated by formation of a homogeneous blue solution. Alcohols such as methanol and 1-butanol are totally miscible with supercritical carbon dioxide at ambient temperatures and high pressure (Cross et al). Between 2 to 5% cosolvent is typically used in order to retain supercritical properties of the solvent at reasonable temperatures and pressures.
[2] = Solubility in hexane, judged by blue colour of the solution; details: no co-solvent, qualitative

With CCCCC(CC)Cn1cc(C)nc1CC (centres unmarked) [1-(2-ethylhexyl)-2-ethyl-4-methylimidazole] the “solubility in hexane with co-solvent (or supercritical carbon dioxide with co-solvent)” value (“solubility in hexane with co-solvent” for short) [1] was 1-(2-ethylhexyl)-2-ethyl-4-methyl-.
In the case of CCCCC(CC)Cn1cccn1 (centres unmarked) [1-(2-ethylhexyl)pyrazole], the “solubility in hexane with co-solvent” value [1] is reported as 1-(2-ethylhexyl)pyrazole.
With CC(C)(C)c1ccncc1 [4-t-butylpyridine] the “solubility in hexane with co-solvent” value [1] was 4-t-butylpyridine.
With “Cu(1-octyl-4-ethyl-2-methylimidazole)2(HCOO)2H2O” the “solubility in hexane (blue color of solution)” value [2] was “dissolves in hexane to yield a blue solution” and the “solubility in hexane (blue color of solution)” value ([2]; listed as Cu(1-octyl-4-ethyl-2-methylimidazole)2(HCOO)2H2O) was “soluble in hexane”.
